# Data as given in US7279325B2, “Method for identifying antagonist compounds of the estrogen-related receptor 3 (ERR3) by using the x-ray structural coordinates of the ligand binding domain” (priority 2002, dated 2007).
# “Also recorded” adds a separate entry of the source.
# Tests used:
# [1] = target: T1, ERR3 (Homo sapiens, UniProt P62508); conditions: Coward et al. (2001); cited from earlier work
# T1 sequence (P62508 1-458): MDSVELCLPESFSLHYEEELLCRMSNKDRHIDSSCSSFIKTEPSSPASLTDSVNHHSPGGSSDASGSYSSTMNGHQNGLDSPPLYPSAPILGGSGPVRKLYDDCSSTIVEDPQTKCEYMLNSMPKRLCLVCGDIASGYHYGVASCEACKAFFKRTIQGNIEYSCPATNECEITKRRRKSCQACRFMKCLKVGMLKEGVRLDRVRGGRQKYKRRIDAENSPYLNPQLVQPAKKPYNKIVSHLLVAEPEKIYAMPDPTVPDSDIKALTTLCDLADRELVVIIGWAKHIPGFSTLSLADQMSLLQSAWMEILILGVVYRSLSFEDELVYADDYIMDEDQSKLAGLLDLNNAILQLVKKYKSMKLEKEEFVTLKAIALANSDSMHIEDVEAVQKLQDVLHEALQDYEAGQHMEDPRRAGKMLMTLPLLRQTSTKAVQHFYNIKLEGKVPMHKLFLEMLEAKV
# [2] = test system: Gal4-ERR3 mutants (A272F, A272L, F435L, L345I-F435L-F450L); assay: Transient transfection luciferase reporter assay, Gal4-ERR3 mutants in COS-1 cells; format: cell-based, human; conditions: 10^−6M 4-OHT
# Description: FIG. 6: represents the transcriptional activities of wild-type and mutant ERR3 fusion proteins in transient transfection assays, wherein (A) COS-1 cells were transfected in 24-well plates with 250 ng per well of Gal4(5×)-TATA-LUC reporter and 50 ng of wt or mutant pCMX-Gal4-ERR3 expression plasmid. […] (B) Experiments were performed as described in (A) using 250 ng per well of Gal4(3×)-TK-LUC reporter plasmid and 50 ng of wt or mutant Gal4-ERR3 expression plasmid. […] FIGS. A to C represent an average of three independent experiments. The activity of the Gal4 DBD control was set to one.
# COS-1 and BHK cells were cultured in DMEM supplemented with 5% FCS, penicillin, streptomycin, and glutamine. Neuro2A cells were cultured in EMEM supplemented with 10% FCS, penicillin, streptomycin, glutamine, and non-essential amino acids. Transient transfection assays were carried out in 24-well plates (0.5×10^5 cells per well for COS-1 and Neuro2A cells, 0.25×10^5 cells per well for BHK cells) using the standard calcium phosphate coprecipitation technique as described in Greiner et al. (Greiner et al., 1996). Cells were transfected with 250 ng of Gal4(5×)-TATA-LUC, Gal4(3×)-TK-LUC, or ERE(2×)-TK-LUC reporter plasmid and 50 ng per well of pCMX-Gal4-ERR3 or pCMX-ERR3 expression plasmid. The empty plasmids pCMX-Gal4 and pCMX served as control. […]
# [3] = target: T2, mutant ERR3 LBDs (A272F, A272L, F435L, L345I, L345I-F435L, L345I-F435L-F450L)/GST-SRC-1 RID complex (Homo sapiens, UniProt P62508, F435L); assay: In vitro protein-protein interaction assay, mutant ERR3 LBDs with SRC-1 RID (native gels); format: biochemical; conditions: 10^−4M 4-OHT
# T2 construct: wt or mutant ERR3 LBDs (residues 229 to 458, human and murine receptor are identical); made in house; host or cells: E. coli BL21(DE3)
# T2 sequence (P62508 229-458 F435L): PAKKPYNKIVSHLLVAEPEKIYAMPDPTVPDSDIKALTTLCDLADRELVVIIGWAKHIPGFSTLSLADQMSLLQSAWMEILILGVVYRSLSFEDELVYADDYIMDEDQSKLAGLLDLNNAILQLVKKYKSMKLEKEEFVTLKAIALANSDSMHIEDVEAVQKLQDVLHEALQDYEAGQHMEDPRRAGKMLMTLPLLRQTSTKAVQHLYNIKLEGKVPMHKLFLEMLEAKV
# Description: (§1) The His-tagged wt or mutant ERR3 LBDs, the GST-tagged SRC-1 RID, and GST were expressed in E. coli BL21(DE3) and partially purified by affinity chromatography using TALON (Clontech) or Glutathione Sepharose 4B (Pharmacia), respectively. […] After purification the proteins were dialyzed in assay buffer (20 mM Tris.HCl pH 8.0, 200 mM NaCl), and concentrated. For the protein-protein interaction assays […] (about 70 pmol) of His-tagged wt or mutant ERR3 LBD were mixed with […] (about 100 pmol) of GST-tagged SRC-1 RID or […] of GST and incubated on ice for 10 mins. […] Protein complexes were resolved on native polyacrylamide gradient gels (8%-25%) using the Phast System (Pharmacia).
# (§2) In vitro interaction assays with the RID (amino acids 617-764) of the coactivator SRC-1 has first been performed. Hexahistidine (His)-tagged ERR3, LBD and GST-tagged SRC-1 RID were partially purified by affinity chromatography, the proteins were mixed, and complex formation was monitored on native polyacrylamide gels. […] Complexes were separated on native polyacrylamide gradient gels.
# (§3) In addition, the ligand-binding pocket of ERR3 has been enlarged by either mutating F435 to leucine or by introducing a triple point mutation (L345I-F435L-F450L) which creates an “ERα-like” ligand-binding pocket.
# [4] = test system: mutant ERR3 LBDs (A272F, A272L, F435L, L345I, L345I-F435L, L345I-F435L-F450L)/GST-SRC-1 RID complex; assay: as above; format: biochemical, human
# Description: as §1, §2, §3
# [5] = target: T1, ERR3; conditions: Coward et al. (2001); cited from earlier work; remark: listed apart in the source
substance,measurement,setting,value
4-hydroxytamoxifen [4-OHT],transactivation / transcriptional activity mediated by ERR3,[1],repressed; also recorded: selectively block
same,transcriptional activity of Gal4-ERR3(F435L) and Gal4-ERR3(L345I-F435L-F450L),[2],antagonizes
same,effect on the ERR3(F435L)/GST-SRC-1 RID complex,[3],still disrupted
same,effect on the complex between GST-SRC-1 RID and the mutants A272F or A272L,"[4]; 10^−4M 4-OHT, ligand-binding cavity filled up",no effect
same,"antagonist effect on ERR3 LBD mutants that contain a F435L mutation (F435L, L345I-F435L, L345I-F435L-F450L) in vitro",[4]; 10^−4M ligand,still acts as an antagonist
same,affinities of binding to ERR3,[5],submicromolar
